Data as given in patent US8362057B2, “Imidazolecarboxamide derivatives as fructose-1,6-bisphosphatase inhibitors, and pharmaceutical compositions comprising same” (Merck Patent Gesellschaft mit beschränkter Haftung, priority 2005, dated 2013).

Molecular target: T1, human liver recombinant fructose-1,6-bisphosphatase (hFBPase) (Homo sapiens, UniProt P09467)
T1 sequence (P09467 1-338): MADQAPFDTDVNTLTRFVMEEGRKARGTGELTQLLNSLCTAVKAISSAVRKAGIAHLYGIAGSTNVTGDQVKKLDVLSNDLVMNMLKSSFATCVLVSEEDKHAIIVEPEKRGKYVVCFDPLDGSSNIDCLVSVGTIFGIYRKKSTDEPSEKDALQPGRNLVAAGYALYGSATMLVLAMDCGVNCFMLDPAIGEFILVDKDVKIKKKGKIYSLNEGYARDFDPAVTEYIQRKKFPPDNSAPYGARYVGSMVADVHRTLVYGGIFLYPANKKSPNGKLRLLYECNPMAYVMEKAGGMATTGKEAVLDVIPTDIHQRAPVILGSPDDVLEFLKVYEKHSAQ
Test: Inhibition of human liver recombinant fructose-1,6-bisphosphatase (spectrophotometric coupled PGI/G6PDH assay)
Format: biochemical
Settings: human liver recombinant enzyme; 0.167 mM fructose-1,6-bisphosphate, pH 7.5, room temperature, 340 nm
Description: Method for Measuring the Inhibition of Human Liver Recombinant Fructose-1,6-bisphosphatase
The enzymatic activity is measured by using a spectrophotometric method by means of reactions coupling the formation of the product (fructose-6-phosphate) to the reduction of NADP+ via phosphoglucoisomerase (PGI) and glucose-6-phosphate dehydrogenase (G6PDH).
The reaction mixtures (250 μl) are prepared in 96-well plates and are composed of 20 mM triethanolamine, pH 7.5, 2 mM MgCl2, 0.1 mM EDTA, 40 mM ammonium sulfate, 0.5 mM NADP, 1 U/ml G6PDH, 1 U/ml PGI and 0.167 mM of substrate (fructose-1,6-bisphosphate).
The inhibitors are prepared at 10^−2 M in 100% DMSO and tested at 10^−5 M (DMSO 0.1% final).
The reactions are initiated by addition of human liver recombinant enzyme fructose-1,6-bisphosphatase (hFBPase) and monitored for 30 minutes at 340 nm, at room temperature, in a Tecan plate reader.

SMILES | IC50 [µM]
CCCc1ccc(C(=O)Nc2[nH]c(Cc3ccc(C(=O)O)o3)nc2C(N)=O)cc1 [Example 6, 5-[4-Carbamoyl-5-(4-propylbenzoylamino)-1H-imidazol-2-ylmethyl]furan-2-carboxylic acid] | 28
CC(C)(C)c1ccc(C(=O)Nc2[nH]c(Cc3ccc(C(=O)O)o3)nc2C(N)=O)cc1 [Example 6.8, 5-[5-(4-tert-Butylbenzoylamino)-4-carbamoyl-1H-imidazol-2-ylmethyl]furan-2-carboxylic acid] | 23
CCCCCc1ccc(NC(=O)Nc2[nH]c(Cc3ccc(C(=O)O)o3)nc2C(N)=O)cc1 [Example 7.8, 5-{4-Carbamoyl-5-[3-(4-pentylphenyl)ureido]-1H-imidazol-2-ylmethyl}furan-2-carboxylic acid] | 24
CC(C)c1cccc(C(C)C)c1NC(=O)Nc1[nH]c(Cc2ccc(C(=O)O)o2)nc1C(N)=O [Example 7.9, 5-{4-Carbamoyl-5-[3-(2,6-diisopropylphenyl)ureido]-1H-imidazol-2-yl-methyl}furan-2-carboxylic acid] | 42
CC(C)(C)c1ccc(C(=O)Nc2[nH]c(Cc3ccc(C(=O)N4CCCC4)o3)nc2C(N)=O)cc1 [Example 8.5, 5-(4-tert-Butylbenzoylamino)-2-[5-(pyrrolidine-1-carbonyl)furan-2-yl-methyl]-1H-imidazole-4-carboxamide] | 36
